From patent US4546079A, “Streptomyces species and process for producing antibiotic” (Bayer Aktiengesellschaft, priority 1981, dated 1985)
*1 amine or outer side, *2 acyl side, *3 side chain or, on linkers, in order; H or OH if unused. Where a SMILES comes first, the peptide text is derived from it. [ ]: non-standard residue; d: D form. ξ: configuration not given here. X1 = Cn1c(=NC(N)=O)ccn(C2SC(C(O)C(N[*:1])C(=O)[*:2])C(O)C2O)c1=O; ξOrn(N(OH)Ac) = CC(=O)N(O)CCCC(N)C(=O)O; ξS = NC(CO)C(=O)O

What was measured:
[1] = tested on: E. coli 14; assay: agar dilution test (NCCLS), in vitro activity; type: cell-based
[2] = tested on: E. coli C 165; assay: agar dilution test (NCCLS), in vitro activity; type: cell-based
[3] = pH 7
[4] = tested on: E. coli Newmann; assay: ED100 (complete cure) in the white mouse; type: in vivo; conditions: Escherichia coli, sc, 0.5 h, once, 30 minutes after infection, subcutaneously
Description: An ED100 (complete cure) is found in vivo for the white mouse, at 3 mg of antibiotic/kg of body weight, in the case of infection with E. coli […]; therapy: application once, 30 minutes after infection, subcutaneously.

[5] = physchem; conditions: organic solvent or mixture
[6] = tested on: E. coli 205 Kn; assay: animal test (mice), ED100; type: in vivo; conditions: Escherichia coli, sc, i.p. infection, s.c. treatment, all animals survive, read-out: ED100 after intra-peritoneal infection and subcutaneous treatment
Description: (§1) | ED100 after intra-peritoneal | infection and subcutaneous The animals were infected with a quantity of bacteria, which quantity led to the death of the control animals during the course of 24 hours. The ED100 was the dose which allowed all infected and treated animals to survive.

[7] = tested on: Staphylococcus aureus; assay: animal test (mice), ED100; type: in vivo; conditions: sc, i.p. infection, s.c. treatment, all animals survive, read-out: ED100 after intra-peritoneal infection and subcutaneous treatment
Description: as §1

[8] = tested on: E. coli Neumann; assay: animal test (mice), ED100; type: in vivo; conditions: Escherichia coli, sc, i.p. infection, s.c. treatment, all animals survive, read-out: ED100 after intra-peritoneal infection and subcutaneous treatment
Description: as §1

[9] = tested on: Klebsiella pneumoniae 63; assay: animal test (mice), ED100; type: in vivo; conditions: sc, i.p. infection, s.c. treatment, all animals survive, read-out: ED100 after intra-peritoneal infection and subcutaneous treatment
Description: as §1

solubility in water [3]: unlimited solubility
solubility ([5]; chloroform): < 100 µg/mL
solubility ([5]; dimethylformamide): < 10000 µg/mL
solubility ([5]; dimethylsulphoxide): < 10000 µg/mL
solubility ([5]; ether): < 100 µg/mL
solubility ([5]; ethyl acetate): < 100 µg/mL
solubility ([5]; methanol): < 10000 µg/mL
solubility ([5]; petroleum ether): < 100 µg/mL
Structure (SMILES): CC(=O)N(O)CCCC(N)C(=O)NC(CCCN(O)C(C)=O)C(=O)NC(CCCN(O)C(C)=O)C(=O)NC(CO)C(=O)NC(C(=O)O)C(O)C1SC(n2ccc(=NC(N)=O)n(C)c2=O)C(O)C1O (stereo not drawn) [BAY i 3265 component B] (H-[ξOrn(N(OH)Ac)][ξOrn(N(OH)Ac)][ξOrn(N(OH)Ac)][ξS][X1]-OH)
in vitro activity [1]: in vitro activity is found
in vitro activity [2]: in vitro activity is found
ED100 [4]: 3 mg/kg
ED100 [6]: 0.1 mg/kg
ED100 [7]: 0.6 mg/kg
ED100 [8]: 0.5 mg/kg
ED100 [9]: 0.2 mg/kg
